{"source": "patent US11154616B2", "about": "“Methods of treating locally advanced or metastatic breast cancers using PD-1 axis binding antagonists and taxanes” (Genentech, Inc., priority 2015, dated 2021)", "origin": "cited, not measured here", "system": "mTNBC", "conditions": "monotherapy in mTNBC"}
{"substance": "MPDL3280A: humanized monoclonal anti-PD-L1 antibody that inhibits the binding of PD-L1 to PD-1", "values": [{"measurement": "clinical response as a monotherapy", "value": "durable responses"}]}
